Measurements published in ChEMBL document CHEMBL1201862, “PubChem BioAssay data set” (2004).
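48-hour exposure; five concentrations; linearly interpolated endpoints. GI50 marks 50% less growth.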 Active and inactive are the calls of the source. No stated cut-off is given here; in the data, active = GI50 up to about 1.1 µM and inactive = higher.

Tests used:
Assay in all cases: inhibition of tumour cell growth, NCI panel, 48 h
EKVX = system: EKVX
SNB-75 = system: SNB-75
RPMI-8226 = system: RPMI-8226
OVCAR-4 = system: OVCAR-4
UACC-257 = system: UACC-257
Hs-578T = system: Hs-578T
CCRF-CEM = system: CCRF-CEM
OVCAR-5 = system: OVCAR-5
HOP-62 = system: HOP-62
SK-OV-3 = system: SK-OV-3
SK-MEL-5 = system: SK-MEL-5
SF-295 = system: SF-295
NCI-H522 = system: NCI-H522
NCI-H226 = system: NCI-H226
MCF7 = system: MCF7
UACC-62 = system: UACC-62
UO-31 = system: UO-31
ACHN = system: ACHN
MDA-MB-231 = system: MDA-MB-231
786-0 = system: 786-0

| SMILES | GI50 (EKVX) | GI50 (SNB-75) | GI50 (RPMI-8226) | GI50 (OVCAR-4) | GI50 (UACC-257) | GI50 (Hs-578T) | GI50 (CCRF-CEM) | GI50 (OVCAR-5) | GI50 (HOP-62) | GI50 (SK-OV-3) | GI50 (SK-MEL-5) | GI50 (SF-295) | GI50 (NCI-H522) | GI50 (NCI-H226) | GI50 (MCF7) | GI50 (UACC-62) | GI50 (UO-31) | GI50 (ACHN) | GI50 (MDA-MB-231) | GI50 (786-0) |
| --- | --- | --- | --- | --- | --- | --- | --- | --- | --- | --- | --- | --- | --- | --- | --- | --- | --- | --- | --- | --- |
| Cc1cccc(C)c1NC(=O)C(=O)CC(=O)/C=C/c1ccccc1 | > 100 µM (inactive) | > 100 µM (inactive) | > 100 µM (inactive) | > 100 µM (inactive) | > 100 µM (inactive) | > 100 µM (inactive) | > 100 µM (inactive) | > 100 µM (inactive) | > 100 µM (inactive) | > 100 µM (inactive) | > 100 µM (inactive) | > 100 µM (inactive) | > 100 µM (inactive) | > 100 µM (inactive) | > 100 µM (inactive) | > 100 µM (inactive) | > 100 µM (inactive) | > 100 µM (inactive) | > 100 µM (inactive) | > 100 µM (inactive) |
| CN1CCN(c2nc3cc(F)ccc3n3cccc23)CC1 | 33.7 µM (inactive) | 29 µM (inactive) | 40.6 µM (inactive) | 30.3 µM (inactive) | 26.6 µM (inactive) | 31.4 µM (inactive) | 29.8 µM (inactive) | 51.2 µM (inactive) | 31 µM (inactive) | 45.4 µM (inactive) | 20.6 µM (inactive) | 21.2 µM (inactive) | 46.5 µM (inactive) | 13.7 µM (inactive) | 15.1 µM (inactive) | 29.4 µM (inactive) | 40.1 µM (inactive) | 31.6 µM (inactive) | 44.2 µM (inactive) | 40.4 µM (inactive) |
| CN(C)/C=N/c1ccc2c3c(cccc13)-c1ccccc1-2 | 10.5 µM (inactive) | 13 µM (inactive) | 10.4 µM (inactive) | 15.7 µM (inactive) | 17.3 µM (inactive) | 10.3 µM (inactive) | 2.23 µM (inactive) | 11.1 µM (inactive) | 16 µM (inactive) | 13.7 µM (inactive) | 14.9 µM (inactive) | 14.4 µM (inactive) | 3.66 µM (inactive) | 10.6 µM (inactive) | 16.8 µM (inactive) | 18.6 µM (inactive) | 5.22 µM (inactive) | 16 µM (inactive) | 14.3 µM (inactive) | 12.6 µM (inactive) |
| CC(C)=CCC[C@@H](C)C1=C(O)C(=O)C(C)=C(Nc2ccccc2Cl)C1=O | 19 µM (inactive) | 8.75 µM (inactive) | 25.9 µM (inactive) | 11.2 µM (inactive) | 25.9 µM (inactive) | 21.7 µM (inactive) | 4.41 µM (inactive) | 45.7 µM (inactive) | 11.6 µM (inactive) | 27.1 µM (inactive) | 16.8 µM (inactive) | 6.71 µM (inactive) | 6.25 µM (inactive) | 13.1 µM (inactive) | 24.4 µM (inactive) | 12.2 µM (inactive) | 12.4 µM (inactive) | 19.1 µM (inactive) | 40.4 µM (inactive) | 12.9 µM (inactive) |
| CCCCCCCCCCCCC(O)C1CCC(C(O)CCCCCCC(O)CCCCCCCC2=CC(C)OC2=O)O1 (configuration not stated) | 1.71 µM (inactive) | 5.58 µM (inactive) | 7.91 µM (inactive) | 34.4 µM (inactive) | 2.17 µM (inactive) | 4.4 µM (inactive) | 3.1 µM (inactive) | > 10 µM (inactive) | 42.3 µM (inactive) |  | 1.19 µM (inactive) | 3.86 µM (inactive) | 16.5 µM (inactive) | 48.2 µM (inactive) | 0.745 µM (active) | > 10 µM (inactive) | 3.08 µM (inactive) | 2.48 µM (inactive) | 28.6 µM (inactive) | 32.9 µM (inactive) |
| Cn1c2c(c3c(=O)[nH]ncc31)Cc1ccccc1-2 | 22.7 µM (inactive) | 16.1 µM (inactive) | 15.9 µM (inactive) | 21.3 µM (inactive) | 10.8 µM (inactive) | 26.5 µM (inactive) | 9.1 µM (inactive) | 31.1 µM (inactive) | 22.5 µM (inactive) | 6.49 µM (inactive) | 12.2 µM (inactive) | 4.33 µM (inactive) | 17.8 µM (inactive) | 13.8 µM (inactive) | 11.5 µM (inactive) |  | 5.53 µM (inactive) | 5.07 µM (inactive) | 14 µM (inactive) | 6.37 µM (inactive) |
| COC(=O)c1cc2/c(=N/O)c3ccccc3sc2o1 | > 100 µM (inactive) | > 100 µM (inactive) | > 100 µM (inactive) | > 100 µM (inactive) | > 100 µM (inactive) | 55.5 µM (inactive) | > 100 µM (inactive) | > 100 µM (inactive) | > 100 µM (inactive) | > 100 µM (inactive) | > 100 µM (inactive) | > 100 µM (inactive) | > 100 µM (inactive) | > 100 µM (inactive) | > 100 µM (inactive) | > 100 µM (inactive) |  | > 100 µM (inactive) | > 100 µM (inactive) | > 100 µM (inactive) |
